Laboratory results: patent US10286034B2, “Uses of bremelanotide in therapy for female sexual dysfunction” (Palatin Technologies, Inc., priority 2012, dated 2019)

Experiment: Subcutaneous trials in males: vomiting and tolerability
Assay type: in vivo, human
Details: intramuscular administration, males

Cc1nccn1CC1CCc2c(c3ccccc3n2C)C1=O (stereo not shown) [ondansetron, reference compound]
effect on bremelanotide-induced vomiting: Vomiting could be resolved
